Experimental data reported in patent publication US7459478B2, “Substituted dihydropyrano indole-3,4-dione derivatives as inhibitors of plasminogen activator inhibitor-1 (PAI-1)” (Wyeth, priority 2002, dated 2008).
Like-named read-outs stand apart in the source and are kept apart here.

Legend:
[1] = biological target: T1, recombinant human plasminogen activator inhibitor-1 (Homo sapiens, UniProt P05121); test: Primary screen for the PAI-1 inhibition (chromogenic residual tPA activity); format: biochemical
T1 construct: purchased Molecular Innovations, Royal Oak, Mich
T1 sequence (P05121 24-402): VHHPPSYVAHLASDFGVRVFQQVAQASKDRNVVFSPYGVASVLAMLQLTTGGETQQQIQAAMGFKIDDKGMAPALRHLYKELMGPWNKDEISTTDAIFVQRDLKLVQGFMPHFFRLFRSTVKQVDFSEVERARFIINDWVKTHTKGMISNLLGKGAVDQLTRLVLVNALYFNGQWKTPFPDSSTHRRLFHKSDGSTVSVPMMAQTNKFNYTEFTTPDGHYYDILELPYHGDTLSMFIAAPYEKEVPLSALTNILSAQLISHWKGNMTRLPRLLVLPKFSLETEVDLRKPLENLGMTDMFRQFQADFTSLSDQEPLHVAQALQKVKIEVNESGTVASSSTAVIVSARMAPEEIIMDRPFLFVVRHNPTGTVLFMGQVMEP
Description: Primary Screen for the PAI-1 Inhibition
Test compounds were dissolved in DMSO at a final concentration of 10 mM, then diluted 100× in physiologic buffer. The inhibitory assay was initiated by the addition of the test compound (1-100 μM final concentration, maximum DMSO concentration of 0.2%) in a pH 6.6 buffer containing 140 nM recombinant human plasminogen activator inhibitor-1 (Molecular Innovations, Royal Oak, Mich.). Following a 1 hour incubation at room temperature, 70 nM of recombinant human tissue plasminogen activator (tPA) was added, and the combination of the test compound, PAI-1 and tPA was incubated for an additional 30 minutes. Following the second incubation, Spectrozyme-tPA (American Diagnostica, Greenwich, Conn.), a chromogenic substrate for tPA, was added and absorbance read at 405 nm at 0 and 60 minutes. Relative PAI-1 inhibition was equal to the residual tPA activity in the presence of the test compound and PAI-1. Control treatments included the complete inhibition of tPA by PAI-1 at the molar ratio employed (2:1), and the absence of any effect of the test compound on tPA alone.

[2] = biological target: human PAI-1 (Homo sapiens, UniProt P05121); test: Assay for determining IC50 of inhibition of PAI-1 (tPA-coated plate, antibody detection of active PAI-1); details: human PAI-1 50 ng/ml, pH 7.5, binding to tPA-coated plate
Chain of human PAI-1 (P05121 24-402): as above
Description: Assay for Determining IC50 of Inhibition of PAI-1
This assay is based upon the non-SDS dissociable interaction between tPA and active PAI-1. Assay plates were initially coated with human tPA (10 μg/ml). Test compounds were dissolved in DMSO at 10 mM, then diluted with physiologic buffer (pH 7.5) to a final concentration of 1-50 μM. Test compounds were incubated with human PAI-1 (50 ng/ml) for 15 minutes at room temperature. The tPA-coated plate was washed with a solution of 0.05% Tween 20 and 0.1% BSA, then the plate was blocked with a solution of 3% BSA. An aliquot of the test compound/PAI-1 solution was then added to the tPA-coated plate, incubated at room temperature for 1 hour, and washed. Active PAI-1 bound to the plate was assessed by adding an aliquot of a 1:1000 dilution of the 33B8 monoclonal antibody against human PAI-1, and incubating the plate at room temperature for 1 hour (Molecular Innovations, Royal Oak, Mich.). The plate was again washed, and a solution of goat anti-mouse IgG-alkaline phosphatase conjugate is added at a 1:50,000 dilution in goat serum. The plate was incubated 30 minutes at room temperature, washed, and a solution of alkaline phosphatase substrate is added. The plate was incubated 45 minutes at room temperature, and color development is determined at OD405 nm. The quantition of active PAI-1 bound to tPA at varying concentrations of the test compound was used to determine the IC50. Results were analyzed using a logarithmic best-fit equation. The assay sensitivity was 5 ng/ml of human PAI-1 as determined from a standard curve ranging from 0-100 ng/ml.

[3] = 25 uM test compound, 140 nM PAI-1, 70 nM tPA, pH 6.6, read-out: % inhibition at 25 uM
[4] = pH 6.6, read-out: % inhibition at 25 uM

Compound | melting point | inhibition at 25 µM [1, 3] [%] | IC50 [2] [µM] | inhibition at 25 µM [1, 4] [%]
O=C1OCc2c(c3cc(-c4ccc(-c5ccccc5)cc4)ccc3n2Cc2ccccc2)C1=O [Example 12, 9-Benzyl-6-(1,1′-biphenyl-4-yl)-1,9-dihydropyrano[3,4-b]indole-3,4-dione] | 254 to 255 °C | 40 | – | –
Cc1ccc(Cn2c3c(c4cc(-c5ccc(OC(F)(F)F)cc5)ccc42)C(=O)C(=O)OC3)cc1 [Example 1, 9-(4-Methylbenzyl)-6-[4-(trifluoromethoxy)phenyl]-1,9-dihydropyrano[3,4-b]indole-3,4-dione] | 243 to 244 °C | – | 2.3 | –
O=C1OCc2c(c3cc(-c4ccc(OC(F)(F)F)cc4)ccc3n2Cc2ccccc2)C1=O [Example 2, 9-Benzyl-6-[4-(trifluoromethoxy)phenyl]-1,9-dihydropyrano[3,4-b]indole-3,4-dione] | 239 to 240 °C | 34 | – | –
O=C1OCc2c(c3cc(-c4ccc(Cl)cc4)ccc3n2Cc2ccccc2)C1=O [Example 9, 9-Benzyl-6-(4-chlorophenyl)-1,9-dihydropyrano[3,4-b]indole-3,4-dione] | 263 to 264 °C | – | – | 40
O=C([O-])C(=O)c1c(CO)n(Cc2ccccc2)c2ccc(-c3ccc(-c4ccccc4)cc3)cc12.[K+] [Example 13, [1-Benzyl-5-(1,1′-biphenyl-4-yl)-2-(hydroxymethyl)-1H-indol-3-yl](oxo)acetic acid, potassium salt] | 266 to 268 °C | – | – | 36
CC(C)(C)c1ccc(Cn2c3c(c4cc(O)ccc42)C(=O)C(=O)OC3)cc1 [Example 8, 9-(4-tert-Butylbenzyl)-6-hydroxy-1,9-dihydropyrano[3,4-b]indole-3,4-dione] | > 105 °C (dec.) | – | 4.83 | –
O=C1OCc2[nH]c3ccc(OCc4ccccc4)cc3c2C1=O [Example 6, 6-(Benzyloxy)-1,9-dihydropyrano[3,4-b]indole-3,4-dione] | > 291 °C (dec.) | – | 34.8 | –
O=C([O-])C(=O)c1c(CO)n(Cc2ccccc2)c2ccc(-c3ccc(Cl)cc3)cc12.[K+] [Example 10, [1-Benzyl-5-(4-chlorophenyl)-2-(hydroxymethyl)-1H-indol-3-yl](oxo)acetic acid, potassium salt] | 225 to 226 °C | – | – | 59
Cc1cccc(-c2ccc3c(c2)c2c(n3Cc3ccc(C(C)(C)C)cc3)COC(=O)C2=O)c1 [Example 4, 9-(4-tert-butylbenzyl)-6-(3-methylphenyl)-1,9-dihydropyrano[3,4-b]indole-3,4-dione] | 196 to 197 °C | – | 29.5 | –
Cc1ccc(Cn2c3c(c4cc(OCc5ccccc5)ccc42)C(=O)C(=O)OC3)cc1 [Example 5, 6-(Benzyloxy)-9-(4-methylbenzyl)-1,9-dihydropyrano[3,4-b]indole-3,4-dione] | 206 to 207 °C | – | 26.6 | –
CC(C)(C)c1ccc(Cn2c3c(c4cc(OCc5ccccc5)ccc42)C(=O)C(=O)OC3)cc1 [Example 7, 6-(Benzyloxy)-9-(4-tert-butylbenzyl)-1,9-dihydropyrano[3,4-b]indole-3,4-dione] | 233 to 234 °C | 6 | – | –
Cc1cccc(-c2ccc3c(c2)c2c(n3Cc3ccccc3)COC(=O)C2=O)c1 [Example 11, 9-Benzyl-6-(3-methylphenyl)-1,9-dihydropyrano[3,4-b]indole-3,4-dione] | 225 to 226 °C | – | – | 30
Cc1ccc(Cn2c3c(c4cc(-c5cccc(C)c5)ccc42)C(=O)C(=O)OC3)cc1 [Example 3, 9-(4-Methylbenzyl)-6-(3-methylphenyl)-1,9-dihydropyrano[3,4-b]indole-3,4-dione] | 216 to 217 °C | – | – | 22
